The record followed here is ChEMBL document CHEMBL4000171, “Structure-activity relationship studies on 1-(2-oxopropyl)indole-5-carboxylic acids acting as inhibitors of cytosolic phospholipase A2α: Effect of substituents at the indole 3-position on activity, solubility, and metabolic stability” (Eur J Med Chem, 2017).

The target of data set [1] is T1, Cytosolic phospholipase A2 (Homo sapiens, UniProt P47712).
T1 sequence (P47712 whole entry): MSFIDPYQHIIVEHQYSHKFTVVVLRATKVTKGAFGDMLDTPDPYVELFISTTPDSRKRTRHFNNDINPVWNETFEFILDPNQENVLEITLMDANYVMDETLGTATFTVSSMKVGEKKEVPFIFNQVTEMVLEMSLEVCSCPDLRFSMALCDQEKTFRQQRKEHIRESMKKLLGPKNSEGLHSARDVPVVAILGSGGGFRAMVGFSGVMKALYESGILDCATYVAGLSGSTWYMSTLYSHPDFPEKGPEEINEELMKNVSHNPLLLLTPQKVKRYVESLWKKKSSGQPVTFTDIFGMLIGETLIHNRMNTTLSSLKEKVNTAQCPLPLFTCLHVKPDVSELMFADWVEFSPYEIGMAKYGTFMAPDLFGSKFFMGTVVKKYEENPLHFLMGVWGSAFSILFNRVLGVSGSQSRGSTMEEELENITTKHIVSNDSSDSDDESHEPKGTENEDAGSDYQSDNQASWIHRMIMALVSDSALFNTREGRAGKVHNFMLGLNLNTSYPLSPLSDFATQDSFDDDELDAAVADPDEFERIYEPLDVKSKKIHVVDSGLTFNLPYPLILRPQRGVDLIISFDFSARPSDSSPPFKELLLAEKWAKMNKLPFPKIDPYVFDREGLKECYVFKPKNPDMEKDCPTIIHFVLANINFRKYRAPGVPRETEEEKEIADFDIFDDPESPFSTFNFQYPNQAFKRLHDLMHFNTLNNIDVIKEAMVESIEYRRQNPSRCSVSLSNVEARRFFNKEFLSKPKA
Put plainly: Inhibition of human platelet cytosolic phospholipase alpha-2 using 1-stearoyl-2-arachidonoyl-sn-glycero-3-phosphocholine/1,2-dioleoyl-sn-glycerol as substrate after 60 mins by UV-HPLC method.

The nature of data set [2]: Thermodynamic solubility of the compound in phosphate buffer at pH 7.4 at 1 mg sonicated for 10 mins measured after 20 hrs by reverse phase HPLC analysis. The data set is classed as physicochemical. To be noted: read-out: Therm_solubility.
For data set [3], the system named is UGT. In words: Metabolic stability in Wistar rat liver S9 fraction assessed as UGT-mediated glucuronidation of compound by measuring compound remaining at 5 uM preincubated for 3 mins followed by UDPGA addition measured after 60 mins by HPLC/MS analysis. The format is ADME. The conditions noted are these: read-out: Stability.
The target of data set [4] is T2, NADPH--cytochrome P450 reductase (Mus musculus, UniProt P37040).
T2 sequence (P37040 whole entry): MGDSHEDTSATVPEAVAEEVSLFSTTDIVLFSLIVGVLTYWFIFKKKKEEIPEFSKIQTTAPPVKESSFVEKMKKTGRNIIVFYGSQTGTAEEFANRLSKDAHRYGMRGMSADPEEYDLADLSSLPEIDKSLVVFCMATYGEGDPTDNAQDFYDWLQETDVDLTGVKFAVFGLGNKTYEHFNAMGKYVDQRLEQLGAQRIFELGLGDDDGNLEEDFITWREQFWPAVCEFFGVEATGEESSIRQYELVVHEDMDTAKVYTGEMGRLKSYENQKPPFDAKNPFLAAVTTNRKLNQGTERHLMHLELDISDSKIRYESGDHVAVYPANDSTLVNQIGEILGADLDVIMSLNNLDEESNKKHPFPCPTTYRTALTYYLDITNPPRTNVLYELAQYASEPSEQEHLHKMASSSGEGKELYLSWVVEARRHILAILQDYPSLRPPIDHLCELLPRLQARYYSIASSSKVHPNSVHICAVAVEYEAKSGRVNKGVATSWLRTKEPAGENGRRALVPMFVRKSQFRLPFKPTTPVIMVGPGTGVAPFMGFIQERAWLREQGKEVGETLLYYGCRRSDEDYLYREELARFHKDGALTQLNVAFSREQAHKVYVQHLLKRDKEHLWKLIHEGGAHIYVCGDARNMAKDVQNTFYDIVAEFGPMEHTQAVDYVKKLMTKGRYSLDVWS
In words: Metabolic stability in CD-1 mouse liver S9 fraction assessed as NADPH CYP450 reductase-mediated compound metabolism by measuring compound remaining in presence of NADPH at 20 uM after 30 mins by HPLC method. The format is ADME. To be noted: read-out: Stability.

The subject of data set [5] is UGT. In words: Metabolic stability in CD-1 mouse liver S9 fraction assessed as UGT-mediated glucuronidation of compound by measuring compound remaining at 5 uM preincubated for 3 mins followed by UDPGA addition measured after 60 mins by HPLC/MS analysis. The conditions noted are these: read-out: Stability. The data set is classed as ADME.
For data set [6], the target named is T3, NADPH--cytochrome P450 reductase (Rattus norvegicus, UniProt P00388).
T3 sequence (P00388 whole entry): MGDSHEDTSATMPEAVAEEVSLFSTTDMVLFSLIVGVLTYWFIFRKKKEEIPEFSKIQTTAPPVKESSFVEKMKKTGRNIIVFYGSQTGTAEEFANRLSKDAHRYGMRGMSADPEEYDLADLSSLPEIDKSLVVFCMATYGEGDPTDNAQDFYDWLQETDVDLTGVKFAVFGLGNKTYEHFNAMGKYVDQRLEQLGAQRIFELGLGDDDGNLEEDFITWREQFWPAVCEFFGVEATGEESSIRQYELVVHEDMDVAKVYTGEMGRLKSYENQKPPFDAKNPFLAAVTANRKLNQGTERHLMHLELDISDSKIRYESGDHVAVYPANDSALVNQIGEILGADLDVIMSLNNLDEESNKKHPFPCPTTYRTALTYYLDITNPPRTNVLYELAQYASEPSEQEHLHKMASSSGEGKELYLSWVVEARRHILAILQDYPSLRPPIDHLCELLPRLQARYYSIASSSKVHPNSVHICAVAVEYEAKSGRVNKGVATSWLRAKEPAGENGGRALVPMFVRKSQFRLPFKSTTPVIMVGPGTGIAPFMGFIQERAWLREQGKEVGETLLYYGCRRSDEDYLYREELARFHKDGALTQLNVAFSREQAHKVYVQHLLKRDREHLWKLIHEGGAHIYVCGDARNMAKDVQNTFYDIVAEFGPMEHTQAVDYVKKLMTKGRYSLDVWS
In words: Metabolic stability in rat liver microsomes assessed as NADPH CYP450 reductase-mediated compound metabolism by measuring compound remaining in presence of NADPH at 20 uM after 30 mins by HPLC. The conditions noted are these: read-out: Stability. The data set is classed as ADME. Background: Microsomes from liver hold many membrane-bound enzymes, among them those of drug oxidation.

Data set [7] deals with T3, NADPH--cytochrome P450 reductase. Put plainly: Metabolic stability in rat liver S9 fraction assessed as NADPH CYP450 reductase-mediated compound metabolism by measuring compound remaining in presence of NADPH at 20 uM after 30 mins by HPLC method. The format is ADME. The conditions noted are these: read-out: Stability.

In brackets after ≈: the same amount, converted by molar mass.

For `CCCCCCCCc1ccc(OCC(=O)Cn2cc(C(=O)CCCCCO)c3cc(C(=O)O)ccc32)cc1`, in data set [1], the IC50 (in general, the concentration at which inhibition is half-maximal) came to 31 nM. For the same molecule, the solubility thermodynamic at 20 h in data set [2] stood at 422 µg/mL (≈ 788 µM). Moreover, the remaining at 1 h, 5 µM in the data set on UGT [3] came out at 43%; in the data set on UGT [5], 27%. Besides, the values for the remaining at 0.5 h, 20 µM in data set [4], in data set [6] and in data set [7] were 78%, 86% and 72%, respectively.
Regarding `COc1ccc2c(c1)c(CC(=O)O)c(C)n2C(=O)c1ccc(Cl)cc1` [INDOMETHACIN], the solubility thermodynamic at 20 h in data set [2] was 246 µg/mL (≈ 688 µM).
Take `CCCCCCCCc1ccc(OCC(=O)Cn2cc(C(=O)CCCCC)c3cc(C(=O)O)ccc32)cc1`: the remaining at 1 h, 5 µM came out at 83% in the data set on UGT [3] and 78% with UGT [5]. Further, the remaining at 0.5 h, 20 µM in data set [4] came to 86%; in data set [6] it was 93%; in data set [7] it was 100%.
